Assay results: patent US20130101527A1, “METHODS, COMPOUNDS AND PHARMACEUTICAL COMPOSITIONS FOR TREATING NEUROLOGICAL DISORDERS” (priority 2011, published 2013)

Columns and labels:
[1] = system: patients with essential tremor; conditions: cited from earlier work
GABAA Receptors = conditions: Kurata et al., Mol Pharmacol. 1999, cited from earlier work
[2] = system: Spontaneous Brain Activity in Healthy Adults; experiment: MEG recordings of spontaneous activity, spectral analysis and ICA localization before and after self-administration of 1-octanol; type: in vivo, human
Procedure: (§1) The database comprises 29 healthy adults from 25-52 years of age (12 women and 17 men).
Spontaneous activity was recorded using a 275 channel (CTF) MEG. Six 7-min recordings were made with the eyes closed. One recording was made before self-administration of 1-Octanol. The others were made at 15, 30, 60, 90 and 120 min after.
A multi-taper approach, which provides reduced-variance calculations of frequency, was used to generate frequency spectra from each set of recordings. Changes in the power spectrum after octanol was determined by first calculating the mean spectra energy (MSE) in 2 Hz frequency bands starting at 2.5 Hz. Logarithmic transformation was applied to the power data and then the mean spectral energy (MSE) was calculated for each band before and after octanol administration. The difference in MSE before and after octanol was then calculated for each participant and the grand mean calculated (FIG. 3).
(§2) Octanol is a straight chain fatty alcohol with 8 carbon atoms CH3(CH2)7OH, and was formulated in an oral mucosal delivery format with appropriate organoleptic characteristics. It was self-administered at 0.1 mg/kg. Participants were instructed to use the spray as they would a breathe spray.
Independent component analysis (ICA) was carried out on the sensor data using the Infomax EEGLab algorithm. The magnetic field described by the ICs was localized onto a volumetric source space constructed from a population-averaged MRI using a recursive weighted minimum norm algorithm.

[3] = system: Spontaneous Brain Activity in Healthy Adults; experiment: as above; type: in vivo, human; conditions: all subjects, five times after octanol (grand mean, s.e.m), FIG. 2
healthy adults = experiment: Seven-scale questionnaire before and after octanol administration; type: in vivo, human; conditions: 0.1 mg/kg, questionnaire before, 5-10 min and 120 min after
Procedure: as §1, §2
A seven-scale questionnaire was used before and at 5-10 minutes and 120 minutes, respectively, after octanol administration to examine the level of relaxation, concentration, worry, sleepiness, stress, pain and the octanol taste.

harmaline-induced tremor = conditions: cited from earlier work
[4] = cited from earlier work
TCD in an animal model = conditions: cited from earlier work
[5] = system: T-type (Cav3.1) calcium channels; conditions: in vitro; cited from earlier work
saliva-amylase = target: T1, saliva-amylase (Homo sapiens, UniProt P0DUB6); conditions: cited from earlier work
T1 sequence (P0DUB6 16-511): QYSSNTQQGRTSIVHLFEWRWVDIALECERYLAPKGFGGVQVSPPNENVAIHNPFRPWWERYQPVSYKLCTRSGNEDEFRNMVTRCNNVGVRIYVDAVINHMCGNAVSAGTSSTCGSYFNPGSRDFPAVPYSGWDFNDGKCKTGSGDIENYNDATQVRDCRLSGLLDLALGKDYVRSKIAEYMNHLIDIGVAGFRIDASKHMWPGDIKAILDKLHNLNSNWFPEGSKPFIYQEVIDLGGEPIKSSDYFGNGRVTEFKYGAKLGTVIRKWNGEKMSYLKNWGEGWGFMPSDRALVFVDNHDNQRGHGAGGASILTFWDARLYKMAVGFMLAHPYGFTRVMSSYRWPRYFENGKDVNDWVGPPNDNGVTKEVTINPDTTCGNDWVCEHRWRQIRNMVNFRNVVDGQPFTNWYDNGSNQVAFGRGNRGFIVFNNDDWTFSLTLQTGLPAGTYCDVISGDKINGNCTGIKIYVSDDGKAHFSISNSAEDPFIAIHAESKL

[6] = example subject with low frequency peaks, FIG. 5
[7] = healthy adults, 0.1 mg/kg self-administered oral mucosal spray, MEG

Compound: CCCCCCCCO [Example 1-octanol, 1-octanol]
- tremor in patients with essential tremor [1]: reduce tremor
- low doses at which octanol is a slight allosteric potentiator of GABA (GABAA Receptors): 1-10 μm
- action on GABA at a higher dose (GABAA Receptors; higher dose): allosteric inhibitor
- number of ICA components in the alpha range ([2]; after octanol administration, FIG. 6): increased
- Localization of the alpha rhythms to the posterior part of the brain (ICA) ([2]; before and 90 minutes after octanol, FIG. 4): not affected
- alpha range peak (8.5-10.4 Hz) [2, 6]: increased
- delta range peaks (2.5-4.4 Hz) [2, 6]: reduced
- abnormal, delta range activity [2, 7]: reducing
- normal, alpha range activity [2, 7]: increases
- beta range activity ([2]; healthy subjects, MEG): did not promote a significant increase
- lower alpha band power ([2]; healthy subjects, MEG): significantly increased
- power spectra in the low alpha range ([2]; most of the subjects, FIG. 1): increase and broadening
- power at lower frequencies ([2]; most subjects, FIG. 3): no change
- low frequency peaks ([2]; some subjects, FIG. 7): not affected
- gamma range activity ([2]; some subjects, MEG): increase
- higher theta range activity ([2]; some subjects, MEG): tendency for potentiating
- ICA components with delta range peaks ([2]; two hours after octanol administration, FIG. 6): no components
- Difference in Mean Spectral Energy, alpha range [3]: clear increase
- Difference in Mean Spectral Energy, delta range [3]: decrease
- general, self-reported measures of wellness (healthy adults): no effect
- harmaline-induced tremor (harmaline-induced tremor): prevents
- accepted daily intake ([4]; as flavoring agent in food and cosmetics, FDA and Council of Europe): 1 mg/kg
- liver toxicity ([4]; higher dosages): associated with liver toxicity
- effect in TCD in an animal model (TCD in an animal model): effective
- inferior olivary oscillations [5]: reduces
- low threshold calcium currents in thalamic and inferior olivary neurons [5]: reversibly reduces

Compound: OC[C@H]1O[C@@H]2O[C@H]3[C@H](O)[C@@H](O)[C@@H](O[C@H]4[C@H](O)[C@@H](O)[C@@H](O[C@H]5[C@H](O)[C@@H](O)[C@@H](O[C@H]6[C@H](O)[C@@H](O)[C@@H](O[C@H]7[C@H](O)[C@@H](O)[C@@H](O[C@H]8[C@H](O)[C@@H](O)[C@@H](O[C@H]9[C@H](O)[C@@H](O)[C@@H](O[C@H]1[C@H](O)[C@H]2O)O[C@@H]9CO)O[C@@H]8CO)O[C@@H]7CO)O[C@@H]6CO)O[C@@H]5CO)O[C@@H]4CO)O[C@@H]3CO [γ-CD, γ-cyclodextrin]
- susceptibility to saliva-amylase degradation (saliva-amylase): highly susceptible
